Where two headings read alike, the source gives them in different places.

The test system of one series is B16 malignant melanoma. The series can be described thus: Survival prolongation in mice bearing B16 malignant melanoma. The class given is in vivo. Here is the method:
(§1) The compounds of this invention are active in inhibiting the growth of transplanted tumors in mice and/or in prolonging the life of tumor-innoculated mice. […] The size of the tumor was measured at 7 or 11 days where the drug inhibited tumor growth. Where life-prolongation was concerned, extra life span of treated animals over that of control animals was determined.
(§2) The following table--Table 1--gives the results of experiments in which mice bearing transplanted tumors were treated successfully with a compound of this invention. In the table, column 1 gives the name of the compound; column 2, the transplanted tumor; column 3, the dose level or dose level range and the number of days the dosage was administered; and column 4, the percent inhibition of tumor growth or percent prolongation of survival time, e.g., B16 (ROS is an abbreviation for Ridgeway osteogenic sarcoma; GLS for Gardner lymphosarcoma; P 1534 (J) for a leukemia and B16 for a malignant melanoma.

The test system of series [1] is Gardner lymphosarcoma (GLS). The series can be described thus: Transplanted tumor growth inhibition in mice, Gardner lymphosarcoma (GLS). The class given is in vivo. The following applies: for inhibition in vivo at 0.125 mg/kg: 0.125 mg/kg × 10 days; for inhibition in vivo at 0.25 mg/kg: 0.25 mg/kg × 10 days. How it is done: as §1, §2
For the next series, the system named is transplanted tumors. The following applies: Belgian Pat. No. 813,168; cited from earlier work.
Series [2] relates to Ridgeway osteogenic sarcoma. To be noted: Belgian Pat. No. 813,168; cited from earlier work.
Another series deals with P 1534(J) leukemia. To be noted: Belgian Pat. No. 813,168; cited from earlier work.
The test system of the next series is Gardner lymphosarcoma. The following applies: Belgian Pat. No. 813,168; cited from earlier work.
Series [3] has as its system experimental malignancies. To be noted: animals; cited from earlier work.
The conditions of series [4]: humans; compared with vincristine; cited from earlier work.
Series [5] deals with vincristine-resistant leukemias. The following applies: humans; cited from earlier work.
A further series has as its system leukemias. To be noted: clinical trial in humans; cited from earlier work.
Setting [6] is: Mus musculus, 168 h, measured at 7 days, read-out: Percent Inhibition (of tumor growth), 7 days.
[7] abbreviates: Mus musculus, 264 h, measured at 11 days, read-out: Percent Inhibition (of tumor growth), 11 days.

In the case of `CCC1(O)CC2CN(CCc3c([nH]c4ccccc34)C(C(=O)OC)(c3cc4c(cc3OC)N(C)C3C(O)(C(=O)NNC(C)=O)C(O)C5(CC)C=CCN6CCC43C65)C2)C1` (centres unmarked) [4-Desacetyl VLB C-3 N^2-acetylcarboxhydrazide], the “Percent Prolongation (of survival time)” value with B16 malignant melanoma (0.15 mg/kg × 3 days) is 71%; in the series on B16 malignant melanoma (0.3 mg/kg × 3 days), 100%; with B16 malignant melanoma (0.6 mg/kg × 3 days), 109%; in the series on B16 malignant melanoma (0.9 mg/kg × 3 days), 84%; with B16 malignant melanoma (1.2 mg/kg × 3 days), 69%. Besides, the “Percent Inhibition (of tumor growth), 11 days” value in series [1] (0.5 mg/kg × 10 days, measured at 11 days) is listed as “Toxic”. In addition, the values for the inhibition in vivo at 0.125 mg/kg in series [1] (setting [6]) and in series [1] (setting [7]) were 100% and 93%, respectively. Also, the inhibition in vivo at 0.25 mg/kg in series [1] (setting [6]) and in series [1] (setting [7]) was 100% throughout. In addition, the inhibition in vivo at 0.5 mg/kg in series [1] (Mus musculus, 168 h, 0.5 mg/kg × 10 days, measured at 7 days, read-out: Percent Inhibition (of tumor growth), 7 days) is 100%.
Regarding `CCC1(O)CC2CN(CCc3c([nH]c4ccccc34)C(C(=O)OC)(c3cc4c(cc3OC)N(C)C3C(O)(C(=O)NN)C(O)C5(CC)C=CCN6CCC43C65)C2)C1` (centres unmarked) [4-Desacetyl VLB C-3 carboxhydrazide], in the series with transplanted tumors, the “anti-tumor activity against transplanted tumors in mice” value was “active anti-tumor agent against transplanted tumors in mice”. Further, the “activity against Ridgeway osteogenic sarcoma” value in series [2] is listed as “active”. The “activity against P 1534(J) leukemia” value with P 1534(J) leukemia is recorded as “active”. The “activity against Gardner lymphosarcoma” value with Gardner lymphosarcoma was “active”.
For `CC[C@]1(O)C[C@@H]2CN(CCc3c([nH]c4ccccc34)[C@@](C(=O)OC)(c3cc4c(cc3OC)N(C)[C@H]3[C@@](O)(C(=O)OC)[C@H](OC(C)=O)[C@]5(CC)C=CCN6CC[C@]43[C@@H]65)C2)C1` [VLB, vincaleukoblastine], the “activity in the treatment of experimental malignancies” value (“activity in the treatment” for short) in [3] was “found active in the treatment of experimental malignancies in animals”.
`CCC1CC2CN(CCc3c([nH]c4ccccc34)C(C(=O)OC)(c3cc4c(cc3OC)N(C)C3C(O)(C(=O)OC)C(OC(C)=O)C5(CC)C=CCN6CCC43C65)C2)C1` (centres unmarked) [deoxy VLB "A"]: the “activity in the treatment” value in series [3] was “found active in the treatment of experimental malignancies in animals”.
Take `CCC1(O)CN2CCc3c([nH]c4ccccc34)C(C(=O)OC)(c3cc4c(cc3OC)N(C)C3C(O)(C(=O)OC)C(OC(C)=O)C5(CC)C=CCN6CCC43C65)CC(O)(C2)C1` (centres unmarked) [leurocolombine]: the “activity in the treatment” value in series [3] is reported as “found active in the treatment of experimental malignancies in animals”.
For `CC[C@]12CN3CCc4c([nH]c5ccccc45)[C@@](C(=O)OC)(c4cc5c(cc4OC)N(C=O)[C@H]4[C@@](O)(C(=O)OC)[C@H](OC(C)=O)[C@]6(CC)C=CCN7CC[C@]54[C@@H]76)C[C@@H](C3)[C@H]1O2` [leuroformine], the “activity in the treatment” value in series [3] is “found active in the treatment of experimental malignancies in animals”.
Take `CC[C@]12CN3CCc4c([nH]c5ccccc45)[C@@](C(=O)OC)(c4cc5c(cc4OC)N(C)[C@H]4[C@@](O)(C(=O)OC)[C@H](OC(C)=O)[C@]6(CC)C=CCN7CC[C@]54[C@@H]76)C[C@H](C3)[C@H]1O2` [leurosine]: in series [3], the “activity in the treatment” value is “found active in the treatment of experimental malignancies in animals”.
For the molecule `CCC1(O)CN2CCc3c([nH]c4ccccc34)C(C(=O)OC)(c3cc4c(cc3OC)N(C)C3C(O)(C(=O)OC)C(OC(C)=O)C5(CC)C=CCN6CCC43C65)CC(C2)C1O` (centres unmarked) [vincadioline], the “activity in the treatment” value in series [3] is “found active in the treatment of experimental malignancies in animals”.
`CC[C@]1(O)C[C@H]2CN(CCc3c([nH]c4ccccc34)[C@@](C(=O)OC)(c3cc4c(cc3OC)N(C=O)[C@H]3[C@@](O)(C(=O)OC)[C@H](OC(C)=O)[C@]5(CC)C=CCN6CC[C@]43[C@@H]65)C2)C1` [vincristine, leurocristine]: the “activity in the treatment” value in series [3] is given as “found active in the treatment of experimental malignancies in animals”.
Take `CC[C@]1(O)C[C@@H]2CN(CCc3c([nH]c4ccccc34)[C@@](C(=O)OC)(c3cc4c(cc3OC)N(C)[C@H]3[C@@](O)(C(N)=O)[C@H](O)[C@]5(CC)C=CCN6CC[C@]43[C@@H]65)C2)C1` [vindesine, 4-desacetyl VLB C-3 carboxamide]: the neurotoxicity entry in [4] is “less neurotoxicity than does vincristine”. For the same molecule, the “effectiveness against vincristine-resistant leukemias” value in series [5] is recorded as “apparently effective against vincristine-resistant leukemias”. For the same molecule, the activity in leukemias entry with leukemias is on record as “found active in certain leukemias”.
On to leurosidine, for which, in series [3], the “activity in the treatment” value is on record as “found active in the treatment of experimental malignancies in animals”.

The values above are taken from patent US4166810A, “Derivatives of 4-desacetyl VLB C-3 carboxyhydrazide” (priority 1978, dated 1979).
